How the values were obtained:
[1] = test system: Ab23; assay: Time-kill assay with colistin and potentiator; assay type: cell-based, Acinetobacter baumannii; parameters: time-kill: concentration of potentiator required for effect: unit not given here; details: for time-kill: effect on Ab23 cells in the absence of colistin: compound alone (compound III at 10 μM), FIGS. 2-4; for time-kill: effect in the presence of colistin: compound plus colistin, Ab23, FIGS. 2-4
Description: Colistin and potentiator were diluted to 1000× final concentrations in water and DMSO, respectively. Then, 3 μl of the appropriate dilutions were added to culture tubes. An overnight culture of Ab23 was diluted to 10^6 CFU/ml, and 3 mL of cells were added to the tubes. The cultures were incubated at 37° C. in an orbital shaker. An aliquot of the starting inoculum was serially diluted in CAMHB and spread on LB agar plates for CFU determination. At 2, 4, 8, and 24 hours, aliquots were removed from each of the culture tubes, diluted, and spread LB agar plates. The plates were incubated overnight at 37° C. The following day, the number of CFUs on each plate was counted, and the number of bacterial in each culture condition was calculated. Colistin (“C”) was tested at 2 and 8 µg/mL. The select compounds (“P”) were tested at 2 and 10 µg/mL. The dotted line indicates the limit of detection.

[2] = test system: panel of Gram-negative bacteria with different colistin susceptibilities; assay: Fractional inhibitory concentration index (FICI) checkerboard assay with colistin; assay type: cell-based; details: for FICI Values of Colistin and Potentiator in Resistant Bacteria: FICI values of ≦0.5 indicate synergy
Description: The fractional inhibitory concentration index (FICI) was determined in combination with colistin using the broth microdilution susceptibility test method as described by the CLSI (Methods for Dilution Antimicrobial Susceptibility Tests for Bacteria That Grow Aerobically; Approved Standard-Ninth Edition. 2012. CLSI document M07-A9. CLIS, 940 West Valley Road, Suite 1400, Wayne, Pa. 19087-1898 USA). This checkerboard assay was set up with decreasing concentrations of colistin across the plate from left to right and decreasing concentrations of potentiator from top to bottom. The FICI values were then calculated using the methods of Lorian et al. (Antibiotics in Laboratory Medicine—Fifth Edition. 2005. Lippincott, Williams, & Wilkins, Philadelphia, Pa.). A panel of Gram-negative bacteria with different colistin susceptibilities were tested.
Each of the tested compounds synergized with colistin in the three species of colistin-resistant bacteria tested.

[3] = test system: Acinetobacter baumannii (Ab23); assay: MIC shift assay of antibiotics (broth microdilution); assay type: cell-based; details: for Colistin MIC Shift: A. baumannii (MDR Ab), compd. concentration 4.0 μM, colistin MIC 0.5-1.0 μg/mL; for colistin MIC shift, Ab23 at (compd concentration): fold shift of colistin MIC, nc = no changeover or no shift
Summary of the method: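 Broth microdilution MIC shift assay against Acinetobacter baumannii. Overnight cultures in cation-adjusted Mueller Hinton broth at 37° C. were sub-cultured 1:200, grown to OD600=0.5 to 0.8, diluted to OD600=0.01, and added (50 μL) to wells holding 50 μL of 2× antibiotic stocks for a starting OD600 of 0.005. After 18 to 20 h at 37° C. with shaking, OD600 was read to obtain MICs.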

[4] = test system: E. coli; assay: as above; assay type: cell-based; details: E. coli (SCR1); compd. concentration 4.0 μM; colistin MIC 0.5-1.0 μg/mL
Description: Minimum inhibitory concentration (MIC) shift assays were performed to determine if the test compounds could alter the MIC of existing antibacterial drugs (e.g., ciprofloxacin and colistin) for E. coli, Acinetobacter baumannii, Klebsiella pneumoniae, Pseudomonas aeruginosa, and Enterobacter cloacae. The MIC shift assay is based on the standard broth microdilution MIC determination protocol of Wiegand et al, Nat Protoc. 3(2):163-75 (2008), with slight modifications that allow for the screening of up to seven test compounds in a single plate.
On the day before an assay, bacteria were grown overnight in cation-adjusted Mueller Hinton broth (CAMHB; Teknova, Hollister, Calif.) at 37° C. in an orbital shaker and sub-cultured at a 1:200 dilution the following morning. The cells were grown to OD600=0.5 to 0.8 and then diluted to OD600=0.01. From a serial dilution of each antibiotic at (50 μL of 2× concentrated stock solutions) several concentrations were added to the wells of a sterile, transparent round-bottom 96-well plate (Phenix Research Products, Candler, N.C.), and diluted cells (50 μL) were added to the plates for a starting OD600 of 0.005. Then, a test compound (2.5 μL) was added to each well to give a final concentration of 4 or 10 μM. A row of wells lacking test compound but containing the antibiotic was used to determine the MIC of that antibiotic alone. A column of wells lacking both antibiotic and test compound served as a growth control, and an additional column containing only CAMHB was included as a sterile blank control.
The plates were incubated for 18 to 20 h at 37° C. in an orbital shaker, and the cell density (OD600) was determined the following day in a microplate reader (PolarStar Optima, BMG Labtech). The MIC shift was determined by comparing the MIC of the antibiotic alone to the MIC of the antibiotic plus test compound.

[5] = colistin-resistant A. baumannii
[6] = colistin-resistant K. pneumoniae
[7] = colistin-resistant P. aeruginosa

Row | SMILES | Colistin MIC Shift [3] | Colistin MIC Shift [4] | colistin MIC shift, Ab23 at (compd concentration) ([3]; compound concentration 2 μM) | also measured
1 | CN(C)CCCNc1nc(/C=C/c2ccc(Cl)c(Cl)c2)nc2c(C(F)(F)F)cccc12 [compound III] |  |  |  | time-kill: effect on Ab23 cells in the absence of colistin [1]: reduced Ab23 in two hours, although the effect was not sustained; time-kill: effect in the presence of colistin [1]: potent synergists of colistin; MIC Shift of Colistin and Potentiator in Resistant Bacteria [2, 5]: 133 x; FICI Values of Colistin and Potentiator in Resistant Bacteria [2, 5]: 0.21; MIC Shift of Colistin and Potentiator in Resistant Bacteria [2, 6]: 533 x; FICI Values of Colistin and Potentiator in Resistant Bacteria [2, 6]: 0.17; MIC Shift of Colistin and Potentiator in Resistant Bacteria [2, 7]: 33 x; FICI Values of Colistin and Potentiator in Resistant Bacteria [2, 7]: 0.19
2 | CN(C)CCCNc1nc(-c2cccc(-c3cc(C(F)(F)F)ccc3F)c2)nc2c(C(F)(F)F)cccc12 [IV] |  |  |  | MIC Shift of Colistin and Potentiator in Resistant Bacteria [2, 5]: 133 x; FICI Values of Colistin and Potentiator in Resistant Bacteria [2, 5]: 0.24; MIC Shift of Colistin and Potentiator in Resistant Bacteria [2, 6]: 512 x; FICI Values of Colistin and Potentiator in Resistant Bacteria [2, 6]: 0.21; MIC Shift of Colistin and Potentiator in Resistant Bacteria [2, 7]: 33 x; FICI Values of Colistin and Potentiator in Resistant Bacteria [2, 7]: 0.27
3 | FC(F)(F)c1ccc2c(-c3ccc(Cl)c(Cl)c3)n[nH]c2c1 [compound II] |  |  |  | time-kill: effect on Ab23 cells in the absence of colistin [1]: had no effect on the cells; time-kill: effect in the presence of colistin [1]: potent synergists of colistin; MIC Shift of Colistin and Potentiator in Resistant Bacteria [2, 5]: 267 x; FICI Values of Colistin and Potentiator in Resistant Bacteria [2, 5]: 0.15; MIC Shift of Colistin and Potentiator in Resistant Bacteria [2, 6]: 32 x; FICI Values of Colistin and Potentiator in Resistant Bacteria [2, 6]: 0.39; MIC Shift of Colistin and Potentiator in Resistant Bacteria [2, 7]: 16 x; FICI Values of Colistin and Potentiator in Resistant Bacteria [2, 7]: 0.26
4 | CN(C)CCCNc1nc(-c2cc(Br)cc(C(F)(F)F)c2)nc2c(Br)cccc12 [compound 338] | 4x | 4x | 8-16x | 
5 | CNCCCN(C)c1nc(-c2cc(Br)cc(C(F)(F)F)c2)nc2c(C)cccc12 [compound 342] | 8x | 8x | 8-16x | 
6 | Clc1ccc(/C=C/c2c[nH]c3ccc(Br)cc23)cc1Cl [compound I] |  |  |  | time-kill: effect on Ab23 cells in the absence of colistin [1]: had no effect on the cells; time-kill: effect in the presence of colistin [1]: potent synergists of colistin; time-kill: concentration of potentiator required for effect ([1]; in combination with colistin, Ab23, FIG. 2): 2; MIC Shift of Colistin and Potentiator in Resistant Bacteria [2, 5]: 133 x; FICI Values of Colistin and Potentiator in Resistant Bacteria [2, 5]: 0.25; MIC Shift of Colistin and Potentiator in Resistant Bacteria [2, 6]: 64 x; FICI Values of Colistin and Potentiator in Resistant Bacteria [2, 6]: 0.30; MIC Shift of Colistin and Potentiator in Resistant Bacteria [2, 7]: 16 x; FICI Values of Colistin and Potentiator in Resistant Bacteria [2, 7]: 0.26
7 | Cc1cccc2c(NCCCN3CCNCC3)nc(-c3cc(Br)cc(C(F)(F)F)c3)nc12 [compound 348] | 8x | 16x | 8-16x | 
8 | CC(N)C(=O)n1cc(-c2ccc(Cl)c(Cl)c2)c2cc(Cl)ccc21 (stereo not shown) [compound 361] | 4x | 4x | 16x | 
9 | Cc1cccc2c(NCCCN(C)C)nc(-c3cc(C(F)(F)F)cc(C(F)(F)F)c3)nc12 [compound 339] | 8x | 8x | 8-16x | 
10 | Cc1cccc2c(NCCN(C)C)nc(-c3cc(Br)cc(C(F)(F)F)c3)nc12 [compound 345] | 4x | 16x | 8-16x | 
11 | Cc1cccc2c(NCCCN(C)C)nc(-c3cc(Br)cc(C(F)(F)F)c3)nc12 [compound 353] | 8x | 8x | 8-16x | 
12 | NCC(=O)n1cc(-c2ccc(Cl)c(Cl)c2)c2cc(Cl)ccc21 [compound 360] | 4x | 4x | 16x | 
13 | CN(C)CCCNc1nc(-c2cc(Br)cc(C(F)(F)F)c2)nc2c(Cl)cccc12 [compound 337] | 4x | 4x | 8-16x | 

The next lines start with results.

Row | Colistin MIC Shift [3] | Colistin MIC Shift [4] | colistin MIC shift, Ab23 at (compd concentration) ([3]; compound concentration 2 μM) | SMILES | also measured
14 | 4x | 8x |  | Cc1cccc2c(NCCCN(C)C)nc(-c3cc(Cl)cc(C(F)(F)F)c3)nc12 [compound 506] | colistin MIC shift, Ab23 at (compd concentration) ([3]; compound concentration 4 μM): 16x
15 | 8x | 8x |  | CCN(CC)CCCC(C)Nc1nc(-c2cc(-c3ccccc3)cc(C(F)(F)F)c2)nc2c(C)cccc12 (stereo not shown) [compound 492] | colistin MIC shift, Ab23 at (compd concentration) ([3]; compound concentration 4 μM): 32x
16 | 8x | 16x |  | CNCCCN(C)c1nc(-c2cccc(-c3cc(C(F)(F)F)ccc3F)c2)nc2c(C)cccc12 [compound 487] | colistin MIC shift, Ab23 at (compd concentration) ([3]; compound concentration 4 μM): 32x
17 | 4x | 8x |  | CN(C)CCCNc1nc(-c2cc(Br)cc(C(F)(F)F)c2)nc2c(C(F)(F)F)cccc12 [compound 505] | colistin MIC shift, Ab23 at (compd concentration) ([3]; compound concentration 4 μM): 32x

Source: US20160168140A1, “HETEROCYCLIC COMPOUNDS AS ANTIBIOTIC POTENTIATORS” (priority 2014, published 2016)
